Data published in patent publication US20230312587A1, “PTERIDINONE COMPOUNDS AND USES THEREOF” (Vertex Pharmaceutical Incorporated, priority 2018, published 2023).

How the values were obtained:
Plk1 = Plk1 (Homo sapiens (Human), UniProt P53350); experiment: PLK1 inhibition assay (radioactive-phosphate incorporation); type: biochemical; settings: Ki(app), read-out: PLK1 - 33P.ENZ - CB 10 Ki
Protocol: Compounds were screened for their ability to inhibit Plk1 using a radioactive-phosphate incorporation assay. Assays were carried out in a mixture of 25 mM HEPES (pH 7.5), 10 mM MgCl2, 25 mM NaCl, and 2 mM DTT. Final substrate concentrations were 20 μM [γ-33P]ATP (35mCi 33P ATP/mmol ATP, Perkin Elmer/Sigma Chemicals) and 9 uM Sam68 protein. Assays were carried out at room temperature in the presence of 15 nM Plk1. An assay stock buffer solution was prepared containing all of the reagents listed above, with the exception of ATP and the test compound of interest. 0.75 μL of DMSO stock containing serial dilutions of the test compound (typically starting from a final concentration of 10 μM with 2-fold serial dilutions—final DMSO concentration 1.5%) was placed in a 384 well plate followed by addition of 25 μL [γ-33P]ATP (final concentration 20 μM). The reaction was initiated by addition of 25 μL of the assay stock buffer solution.
The reaction was stopped after 45 minutes by the addition of 25 μL 30% trichloroacetic acid (TCA) containing 10 mM cold ATP. The entire quenched reaction was transferred to a 384-well glass fiber filter plate (Millipore, Cat no. MZFBNOW50). The plate was washed with 3×5% TCA. After drying, 40 μL of Ultima Gold liquid scintillation cocktail (Perkin Elmer) was added to the well prior to scintillation counting in a PerkinElmer TopCount.
After removing mean background values for all of the data points, Ki(app) data were calculated from non-linear regression analysis of the initial rate data using the Prism software package (GraphPad Prism, GraphPad Software, San Diego California, USA).

[1] = test system: β-catenin-TCF-mediated reporter transcription activity in Colo 205 cells; experiment: Colo 205 reporter assay (TCF/LEF luciferase); type: cell-based; settings: Homo sapiens, COLO 205, 5 h, Colo 205 TCF/LEF luciferase reporter, five hours after addition of compound; read-out: TCF reporter Colo205 IC50
Outline: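 Luciferase signal from a TCF/LEF-driven reporter, stably integrated in Colo 205 colon cancer cells, was measured 5 h after compound addition.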

[2] = test system: Colo205-TCF/LEF-Luciferase (Luc) tumor; experiment: In vivo inhibition of TCF/LEF reporter activity in Colo-205 tumors; parameters: concentration or dose not given beside the values; settings: TCF/LEF luciferase reporter in Colo-205 tumors, nu/nu mice, oral gavage
Outline: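 Female nu/nu mice carried subcutaneous Colo205-TCF/LEF-luciferase tumours (200–500 mm^3), n=4 per group. Compound was given by oral gavage in 1:3:5:1 EtOH:DMSO:PEG-400:H2O at 10 ml/kg, with vehicle as control. Luciferase activity in tumour lysates (Steady-Glo) was normalised to BCA protein.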

[3] = test system: non-small cell lung cancer (NSCLC) adenocarcinoma line D33966; experiment: In vivo efficacy, NSCLC patient derived xenograft OD33966; parameters: species or system nu/nu mice; settings: Mus musculus, 336 h; NSCLC PDX OD33966, oral, 100 mpk qd, treatment day 14; read-out: % TGI
Protocol: Female immune deficient mice (Charles River, 4-6 wks age) were anesthetized with Ketamine-Xylazine (140 mg/kg-14 mg/kg ip) and shaved. Puralube eye ointment was applied to the eyes to prevent desiccation of the corneas. Betadine and 70% ethanol was applied to the shaved location to sterilize the skin at the location of the incision. The animals were placed in a biosafety cabinet for the duration of the surgery. Using scissors, an 8 to 10 mm incision was made in the lateral flank of the skin. A tumor fragment weighing between 50 and 150 mg was placed under the skin at the incision site using forceps, and staples were used to close the incision. The staples were removed 5 to 7 days after surgery. Starting approximately two weeks after implantation, animals were weighed, and tumors were measured using caliper twice weekly. Tumor volume was calculated using the formula: volume=length×width^2×0.52.
Compound administration began when xenografts reached approximately 100-300 mm3 and continued until control xenografts reached […] of the animal's body weight. Test compounds were administered orally by gastric gavage. Percent tumor growth inhibition (TG) was calculated on the indicated treatment day. Percent TGI is defined as: [1−(del T/del C)]×100%, where del T is the final minus initial average volumes of the treated group, and del C is the final minus initial average volumes of the control group. […] The tested compounds were administered orally. Vehicle control consisted of either 0.5% methylcellulose/0.1% sodium lauryl sulfate or 20% captisol. Tumor volumes were determined by caliper measurement twice a week.

HepG2 XBP1(u)-Luc cells = experiment: HepG2 XBP1 reporter assay; type: cell-based; settings: Homo sapiens, 6 h
Protocol: HepG2 hepatoma cells were transduced with a retrovirus encoding the cDNA for unspliced (u) XBP1, which contains a non-processed intron, fused to the cDNA for firefly luciferase. Upon induction of ER stress, the non-processed intron of XBP1(u) is spliced out by active IRE1alpha endonuclease. The resulting spliced (s) XBP1 is now in frame with luciferase which causes the production of active luciferase protein, resulting in bioluminescence
HepG2 XBP1(u)-Luc cells were plated […] Cultured cells with a stably transfected reporter construct were plated at approximately 30,000 cells per well into 96 well multi-well plates for twenty four hours. The testing compounds were then added to the wells in 3-fold serial dilutions using a twenty seven micromolar top concentration. A series of control wells for each cell type received only compound solvent. Six hours after the addition of compound, reporter activity for luciferase was assayed, by addition of the SteadyGlo luminescence reagent (Promega). The reporter luminescence activity was measured using Pherastar plate reader (BMG Labtech). Readings was normalized to DMSO only treated cells, and normalized activities were then used in the IC50 calculations. The HepG2 XBP1 reporter assay data are summarized in Table 47: A<0.6 μM; 0.6 μM≤B<2.0 μM; 2.0 μM≤C<10.0 μM; D≥10.0 μM.

Colo-205 cells = experiment: Calcium flux assay (FLIPR Calcium 5); type: cell-based; settings: Homo sapiens, COLO 205, 0.6 h, FLIPR Calcium 5, measured over 36 minutes
Protocol: Compounds described herein induced ER stress by causing intracellular calcium flux. Calcium flux was measured in Colo-205 cells using the FLTPR® Calcium 5 Assay Kit according to manufacter's protocol (Molecular Devices, Cat. #R8186) on a FLIPR3 system (Molecular Devices). Calcium flux is measured over 36 minutes. The Colo-205 calcium flux assay data are summarized in Table 47: A<0.6 μM; 0.6 μM≤B<2.0 μM; 2.0 μM≤C<10.0 μM; D≥10.0 μM.

[4] = biological target: HEK293 membranes over-expressing WFS-1 (Homo sapiens (Human), UniProt O76024); experiment: Radioligand displacement assay (tritiated Compound 136 probe); type: binding; settings: displacement of tritiated Compound 136
Protocol: Cell pellets were re-suspended in 15 times packed cellular volume in 4° C. hypotonic lysis buffer (10 mM HEPES, pH 7.5 containing 1×Protease inhibitor, 0.5 mM EDTA and 2 mM DTT). Re-suspended cells were homogenized with 6-8 strokes in a dounce homogenizer kept on ice. Lysates were centrifuged at 500×G for 15 minutes at 4° C. without brake to decelerate rotor. Following centrifugation, remove the supernatant to a fresh tube and place on ice (Supernatant 1). Repeat the above steps on the lysed cell pellet using 0.5 the original volume of hypotonic lysis buffer and remove the 500× G supernatant (Supernatant 2) and combine with Supernatant 1. Transfer the combined supernatants to a 45-Ti ultracentrifuge tube and centrifuge at 100,000× G for 30 minutes. Following ultracentrifugation, carefully remove the supernatant and discard. Resuspend the 100,000× G pellet in cold resuspension buffer (10 mM HEPES, pH 7.5, 300 mM NaCl containing 1× Protease inhibitor, 1× EDTA and 2 mM DTT). Centrifuge sample at 500× G for 10 minutes with no brake and remove any cloudy, flocculent material. Resuspend pellet in resuspension buffer to approximately 2 mg/mL of protein concentration for use in radioligand binding assay and immunoblotting.
The binding affinities of compounds were determined by measuring the competitive displacement of a tritiated Compound 136 probe from purified HEK293 membranes over-expressing WFS-1. The data for the radioligand displacement assay are summarized in Table 47: A<0.06 μM; 0.06 μM≤B<0.6 μM; 0.6 μM≤C<3.0 μM; D≥3.0 μM.
The probe Kd was determined by titrating tritiated probe under the standard assay conditions plus and minus excess unlabeled probe and fitting the resulting data to a “One site—Total and nonspecific binding” model in Graphpad Prism, version 6.0, San Diego, CA, US. Initially, 0.25 μl of compound dissolved in DMSO at varying concentrations was dispensed to a 384 well plate. Membrane and probe were both prepared at 2× their final concentration in 1× assay buffer as described above. 25 μL of membrane was added to the wells and incubated for 10 minutes. 25 μL of diluted probe was then added to the wells. The assay was incubated for 90 minutes at room temperature. The entire assay volume was then transferred to Millipore GF/B 384-well plates pretreated with 15 μL 0.5% PEI. The filter plates were washed 3× with 75 μL 25 mM TRIS, ph7.5, 0.1% BSA and then dried overnight. Following addition of 45 μL UltimaGold scintillant, the samples were counted in a Perkin Elmer Topcount. The radioactivity remaining is a measure of bound probe. From the bound probe vs concentration of compound titration curve, the IC50 is determined by fitting the data to a standard 3 parameter IC50 model using either Graphpad Prism, version 6.0, San Diego, CA, US, or using GeneData Analyzer, Basel, Switzerland.

[5] = test system: ER stress marker proteins XBP1(s) and ATF4; experiment: ER stress marker immunoblot in parental HepG2 vs WFS1 KO cells; type: cell-based; settings: 6 hours, immunoblotting
Excerpt: (§1) In contrast WFS1 depletion had no effect on thapsigargin induced changes in global gene expression (FIG. 7.)

[6] = test system: global gene expression in HepG2 cells; experiment: Global gene expression changes in HepG2 vs WFS1 depleted cells; type: cell-based; settings: HepG2, 6 hours of exposure
Excerpt: as §1

Sequence of Plk1 (P53350 whole entry, species assumed): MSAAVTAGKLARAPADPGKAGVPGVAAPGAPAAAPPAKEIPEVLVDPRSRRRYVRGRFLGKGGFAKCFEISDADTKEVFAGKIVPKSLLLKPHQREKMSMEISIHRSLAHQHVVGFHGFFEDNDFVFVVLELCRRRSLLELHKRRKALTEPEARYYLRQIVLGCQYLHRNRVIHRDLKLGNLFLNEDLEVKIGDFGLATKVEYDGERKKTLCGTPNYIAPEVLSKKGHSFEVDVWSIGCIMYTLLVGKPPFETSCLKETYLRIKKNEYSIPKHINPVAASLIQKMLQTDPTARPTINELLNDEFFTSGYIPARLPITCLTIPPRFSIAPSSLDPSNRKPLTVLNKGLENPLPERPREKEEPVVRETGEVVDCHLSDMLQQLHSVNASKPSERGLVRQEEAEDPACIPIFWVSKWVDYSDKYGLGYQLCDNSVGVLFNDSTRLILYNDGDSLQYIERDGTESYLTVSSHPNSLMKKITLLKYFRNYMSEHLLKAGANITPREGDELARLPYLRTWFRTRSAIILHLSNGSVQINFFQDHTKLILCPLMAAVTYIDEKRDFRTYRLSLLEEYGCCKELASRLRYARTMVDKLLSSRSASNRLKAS
Sequence of HEK293 membranes over-expressing WFS-1 (O76024 whole entry): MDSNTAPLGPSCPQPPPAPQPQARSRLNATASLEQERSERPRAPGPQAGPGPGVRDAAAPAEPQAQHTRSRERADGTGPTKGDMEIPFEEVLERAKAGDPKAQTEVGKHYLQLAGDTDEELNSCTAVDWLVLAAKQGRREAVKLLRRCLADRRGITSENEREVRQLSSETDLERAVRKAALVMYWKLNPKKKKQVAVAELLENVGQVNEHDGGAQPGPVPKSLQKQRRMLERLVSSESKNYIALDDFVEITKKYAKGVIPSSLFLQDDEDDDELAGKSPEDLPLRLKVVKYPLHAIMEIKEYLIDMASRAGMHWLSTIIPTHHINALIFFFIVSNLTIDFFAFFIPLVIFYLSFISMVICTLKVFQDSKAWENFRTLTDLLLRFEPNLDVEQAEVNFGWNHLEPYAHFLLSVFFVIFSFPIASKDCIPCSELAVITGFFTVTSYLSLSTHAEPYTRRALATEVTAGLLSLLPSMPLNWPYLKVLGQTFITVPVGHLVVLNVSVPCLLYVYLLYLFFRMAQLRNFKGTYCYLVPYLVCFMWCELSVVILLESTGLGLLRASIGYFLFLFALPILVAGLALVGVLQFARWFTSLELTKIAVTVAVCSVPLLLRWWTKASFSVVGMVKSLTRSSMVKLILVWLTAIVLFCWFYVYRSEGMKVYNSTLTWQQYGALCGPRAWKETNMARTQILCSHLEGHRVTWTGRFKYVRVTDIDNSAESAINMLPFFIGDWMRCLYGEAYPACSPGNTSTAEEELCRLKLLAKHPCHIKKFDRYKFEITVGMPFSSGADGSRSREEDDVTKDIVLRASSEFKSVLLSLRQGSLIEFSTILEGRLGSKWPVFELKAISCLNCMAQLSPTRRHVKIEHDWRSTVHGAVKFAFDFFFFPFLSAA

Cc1nc(NCc2cnn(Cc3cc(F)c(F)c(F)c3)c2)nc2c1N(C)C(=O)[C@H](C)N2C [Compound 14, (7S)-4,5,7,8-tetramethyl-2-(((1-(3,4,5-trifluorobenzyl)-1H-pyrazol-4-yl)methyl)amino)-7,8-dihydropteridin-6(5H)-one]
Ki (Plk1): > 4 µM | IC50 [1]: < 0.3 µM | Percent Remaining Activity at 8 hrs after Dosing [2]: 33%

C[C@H]1C(=O)Nc2cnc(NCc3cnn(Cc4cc(F)c(F)c(F)c4)c3)nc2N1C [Compound 42, (7S)-7,8-dimethyl-2-(((1-(3,4,5-trifluorobenzyl)-1H-pyrazol-4-yl)methyl)amino)-7,8-dihydropteridin-6(5H)-one]
IC50 [1]: < 0.3 µM | Percent Remaining Activity at 8 hrs after Dosing [2]: 20% | inhibition in vivo at 100 mg/kg [3]: 79.6%

Cc1nc(NCc2cnn(Cc3ccc(F)cc3)c2)nc2c1N(C)C(=O)C1(CC1)N2C [Compound 223, 2′-(((1-(4-fluorobenzyl)-1H-pyrazol-4-yl)methyl)amino)-4′,5′,8′-trimethyl-5′,8′-dihydro-6′H-spiro[cyclopropane-1,7′-pteridin]-6′-one]
Ki (Plk1): > 4 µM | IC50 [1]: < 0.3 µM | Percent Remaining Activity at 8 hrs after Dosing [2]: 39%

CN1C(=O)C(C)(C)N(C)c2nc(NCc3cnn(Cc4cc(F)c(F)c(F)c4)c3)ncc21 [Compound 229, 5,7,7,8-tetramethyl-2-(((1-(3,4,5-trifluorobenzyl)-1H-pyrazol-4-yl)methyl)amino)-7,8-dihydropteridin-6(5H)-one]
Ki (Plk1): > 4 µM | IC50 [1]: < 0.3 µM | Percent Remaining Activity at 8 hrs after Dosing [2]: 49%

Cc1nc(N[C@H]2C[C@H](OCc3cc(F)c(F)c(F)c3)C2)nc2c1NC(=O)[C@H](C)N2C [Compound 254, (7S)-4,7,8-trimethyl-2-((trans-3-((3,4,5-trifluorobenzyl)oxy)cyclobutyl)amino)-7,8-dihydropteridin-6(5H)-one]
Ki (Plk1): > 4 µM | IC50 [1]: < 0.3 µM | IC50 (HepG2 XBP1(u)-Luc cells): < 0.6 µM | EC50 (Colo-205 cells): 0.6 to 2 µM | IC50 [4]: 0.06 to 0.6 µM

C/C=C(/C)C(=O)O[C@H]1C(C)=C2[C@H]([C@@H]1OC(=O)CCCCCCC)[C@@](C)(OC(C)=O)C[C@H](OC(=O)CCC)[C@@]1(O)[C@H]2OC(=O)[C@@]1(C)O [thapsigargin, reference compound]
effect of WFS1 depletion on induction of XBP1(s) and ATF4 [5]: much lesser effect | effect of WFS1 depletion on changes in global gene expression [6]: no effect
